How the values were obtained:
[1] = test system: T1, PC12 cells expressing TrkA and p75^NTR; assay: 125I-NGF receptor binding inhibition, PC12 cells; set-up: species or system rat; conditions: compound 50 μM; 125I-NGF 1 nM; 2 h at 4° C.; value is mean of the three replicates
T1 construct: host or cells: PC12 (rat pheochromocytoma)
Method: (§1) The radio-iodination and receptor binding of NGF (Sutter et al., 1979) was performed with modifications (Ross et al., 1997) as follows: Evaluation of the ability of NCP compounds to inhibit TrkA and p75^NTR binding was determined by the binding of ^125I-NGF to PC12 cells (rat pheochromocytoma cells expressing TrkA and p75^NTR obtained from ATCC) and PC12^nnr5 (rat pheocliromocytoma cells expressing p75^NTR only; obtained from Dr. L. Greene, Columbia University, NY). The p75^NTR is in a low affinity state and a high affinity state, respectively, in these cell types (Ross et al., 1998). PC12 and PC12^nnr5 cells were grown in RPMI (Sigma) with 10% heat inactivated donor horse serum and 5% fetal calf serum. Cells were harvested by replacing the medium with calcium, magnesium-free balanced salt solution (Gey's solution) and incubating at 37° C. for 15 minutes. Cells were pelleted by centrifugation and suspended in HKR buffer (10 mM Hepes [pH 7.35] containing 125 mM NaCl, 4.8 mM KCl, 1.3 mM CaCl2, 1.2 mM MgSO4, 1.2 mM KH2PO4, 1 g/L glucose and 1 g/L BSA) at a cell concentration of 2×10^6/mL and kept at 4° C. Triplicate tubes were set up for total binding, non-specific binding and binding in the presence of candidate competitor molecule (i.e., a tube for each data point). Each tube contained ^125I-NGF (at 1 nM), 400,000 cells (for a final cell concentration of 10^6/mL) and NGF (50 nM, to define non-specific binding), as required. The tubes were incubated for 2 h at 4° C. and specific binding evaluated by measuring specifically bound DPM (Ross et al., 1997). Data were analysed and the results expressed as receptor binding observed in the presence of competitor as a percentage of receptor binding in the absence of a competitor.

[2] = test system: T2, PC12^nnr5 cells expressing p75^NTR only; assay: 125I-NGF receptor binding inhibition, PC12^nnr5 cells; set-up: species or system rat; conditions: compound 50 μM; 125I-NGF 1 nM; 2 h at 4° C.; value is mean of the three replicates
T2 construct: PC12^nnr5 (rat pheocliromocytoma cells expressing p75^NTR only; obtained from Dr. L. Greene, Columbia University, NY); host or cells: PC12nnr5 (rat pheochromocytoma subline)
Method: as §1

[3] = @ 100 μM DMSO

T2 sequence (P01139 122-241): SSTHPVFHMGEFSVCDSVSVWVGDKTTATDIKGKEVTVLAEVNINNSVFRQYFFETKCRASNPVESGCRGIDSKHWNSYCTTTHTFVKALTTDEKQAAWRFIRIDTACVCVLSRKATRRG
T1 sequence (P01139 122-241): as above

| PC12 % of Max (receptor binding in presence of competitor as percentage of binding in absence of competitor) [1] | nnr5 % of Max (receptor binding in presence of competitor as percentage of binding in absence of competitor) [2] | Solubility [3] | Structure (SMILES) |
| --- | --- | --- | --- |
| 92, 87, 74 = 84 % of Max | 58, 63, 64 = 62 % of Max | – | O=C(O)CN1C(=O)c2cccc3cc([N+](=O)[O-])cc(c23)C1=O [Compound 200, N-(1-carboxymethyl)-3-nitro-1,8-naphthalimide; 2-(1-carboxymethyl)-5-nitrobenzo[d,e]isoquinoline-1,3-dione] |
| 21, 22, 30 = 24 % of Max | 16, 0, 0 = 5 % of Max | – | O=C(O)CCCN1C(=O)c2cccc3cc([N+](=O)[O-])cc(c23)C1=O [Compound 202, N-(3-carboxypropyl)-3-nitro-1,8-naphthalimide; 2-(3-carboxypropyl)-5-nitrobenzo[d,e]isoquinoline-1,3-dione] |
| 36, 41, 35 = 37 % of Max | 33, 0, 18 = 17 % of Max | – | O=C(O)CCCCN1C(=O)c2cccc3cc([N+](=O)[O-])cc(c23)C1=O [Compound 203, N-(4-carboxybutyl)-3-nitro-1,8-naphthalimide; 2-(4-carboxybutyl)-5-nitrobenzo[d,e]isoquinoline-1,3-dione] |
| 29, 32, 31 = 31 % of Max | 41, 37, 42 = 40 % of Max | – | O=C(O)CCN1C(=O)c2cccc3c([N+](=O)[O-])ccc(c23)C1=O [Compound 221, N-(2-carboxyethyl)-4-nitro-1,8-naphthalimide; 2-(2-carboxyethyl)-6-nitrobenzo[d,e]isoquinoline-1,3-dione] |
| 27, 32, 41 = 33 % of Max | 30, 4, 34 = 23 % of Max | – | O=C(O)CCN1C(=O)c2cccc3cc([N+](=O)[O-])cc(c23)C1=O [Compound 201, N-(2-carboxyethyl)-3-nitro-1,8-naphthalimide; 2-(2-carboxyethyl)-5-nitrobenzo[d,e]isoquinoline-1,3-dione] |
| 37, 43, 49 = 43 % of Max | 21, 17, 26 = 21 % of Max | 220 NS (NS: Not Soluble @ 100 μM DMSO) | O=C(O)CN1C(=O)c2cccc3c([N+](=O)[O-])ccc(c23)C1=O [Compound 220, N-(1-carboxymethyl)-4-nitro-1,8-naphthalimide; 2-(1-carboxymethyl)-6-nitrobenzo[d,e]isoquinoline-1,3-dione] |
| – | – | 222 NS (NS: Not Soluble @ 100 μM DMSO) | O=C(O)CCCN1C(=O)c2cccc3c([N+](=O)[O-])ccc(c23)C1=O [Compound 222, N-(3-carboxypropyl)-4-nitro-1,8-naphthalimide; 2-(3-carboxypropyl)-6-nitrobenzo[d,e]isoquinoline-1,3-dione] |
| 31, 34, 22 = 29 % of Max | 36, 35, 39 = 36 % of Max | – | O=C(O)CCCCCN1C(=O)c2cccc3c([N+](=O)[O-])ccc(c23)C1=O [Compound 224, N-(5-carboxypentyl)-4-nitro-1,8-naphthalimide; 2-(5-carboxypentyl)-6-nitrobenzo[d,e]isoquinoline-1,3-dione] |
| 27, 33, 33 = 31 % of Max | 40, 41, 47 = 43 % of Max | – | O=C(O)CCCCN1C(=O)c2cccc3c([N+](=O)[O-])ccc(c23)C1=O [Compound 223, N-(4-carboxybutyl)-4-nitro-1,8-naphthalimide; 2-(4-carboxybutyl)-6-nitrobenzo[d,e]isoquinoline-1,3-dione] |
| 41, 41, 36 = 39 % of Max | 12, 0, 47 = 20 % of Max | – | O=C(O)CCCCCN1C(=O)c2cccc3cc([N+](=O)[O-])cc(c23)C1=O [Compound 204, N-(5-carboxypentyl)-3-nitro-1,8-naphthalimide; 2-(5-carboxypentyl)-5-nitrobenzo[d,e]isoquinoline-1,3-dione] |
